Assay results taken from PubChem BioAssay AID1963437 (Molecular Pharmacology Branch, DTP, NCI, 2024).

Test system: OVCAR-8 complex spheroid, growth inhibition
Assay: Anticancer human tumor OVCAR-8 cell line growth inhibition [Asc];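 further: spheroids exposed to agents for 7 days before readout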;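 on viability, T/C: percent viability relative to DMSO vehicle wells taken as 100%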
Details: for IC50: curve of first compound; for viability, T/C: stronger effect = lower value; active means viability on the fitted dose curve at most 10% of control; inactive means the rest
Outline: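 Tumor cells were grown as complex spheroids with human endothelial cells (HUVEC) and human mesenchymal stem cells as stroma. Agents were tested alone and in combination, in half-log steps down from the clinical Cmax, or from 10 microM where Cmax was unknown.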

[1] = second compound 0.00316 µM, first compound 0.0316 µM
[2] = second compound 0.00316 µM, first compound 0.1 µM
[3] = second compound 0.00316 µM, first compound 0.316 µM
[4] = second compound 0.00316 µM, first compound 1 µM
[5] = second compound 0.01 µM, first compound 0.0316 µM
[6] = second compound 0.01 µM, first compound 0.1 µM
[7] = second compound 0.01 µM, first compound 0.316 µM
[8] = second compound 0.01 µM, first compound 1 µM
[9] = second compound 0.0316 µM, first compound 0.0316 µM
[10] = second compound 0.0316 µM, first compound 0.1 µM
[11] = second compound 0.0316 µM, first compound 0.316 µM
[12] = second compound 0.0316 µM, first compound 1 µM
[13] = second compound 0.1 µM, first compound 0.0316 µM
[14] = second compound 0.1 µM, first compound 0.1 µM
[15] = second compound 0.1 µM, first compound 0.316 µM
[16] = second compound 0.1 µM, first compound 1 µM
[17] = second compound 0.316 µM, first compound 0.0316 µM
[18] = second compound 0.316 µM, first compound 0.1 µM
[19] = second compound 0.316 µM, first compound 0.316 µM
[20] = second compound 0.316 µM, first compound 1 µM
[21] = second compound 1 µM, first compound 0.0316 µM
[22] = second compound 1 µM, first compound 0.1 µM
[23] = second compound 1 µM, first compound 0.316 µM
[24] = second compound 1 µM, first compound 1 µM

CCN1CCN(Cc2ccc(Nc3ncc(F)c(-c4cc(F)c5nc(C)n(C(C)C)c5c4)n3)nc2)CC1 + CNC(C)C(=O)NC1CN(S(=O)(=O)c2cccc(S(=O)(=O)N3CCC4CCC(C(=O)NC(c5ccccc5)c5ccccc5)N4C(=O)C(NC(=O)C(C)NC)C3)c2)CCC2CCC(C(=O)NC(c3ccccc3)c3ccccc3)N2C1=O
inactive: viability, T/C (second compound 0.00316 µM, first compound 0.00316 µM) 102% | viability, T/C (second compound 0.00316 µM, first compound 0.01 µM) 95.7% | viability, T/C [1] 96% | viability, T/C [2] 85.9% | viability, T/C [3] 111% | viability, T/C [4] 114% | viability, T/C (second compound 0.01 µM, first compound 0.00316 µM) 91.3% | viability, T/C (second compound 0.01 µM, first compound 0.01 µM) 86.7% | viability, T/C [5] 85% | viability, T/C [6] 85.3% | viability, T/C [7] 99.9% | viability, T/C [8] 148% | viability, T/C (second compound 0.0316 µM, first compound 0.00316 µM) 90.6% | viability, T/C (second compound 0.0316 µM, first compound 0.01 µM) 88.5% | viability, T/C [9] 84.7% | viability, T/C [10] 81.2% | viability, T/C [11] 91.2% | viability, T/C [12] 116% | viability, T/C (second compound 0.1 µM, first compound 0.00316 µM) 84% | viability, T/C (second compound 0.1 µM, first compound 0.01 µM) 78% | viability, T/C [13] 83.9% | viability, T/C [14] 92.5% | viability, T/C [15] 96.7% | viability, T/C [16] 111% | viability, T/C (second compound 0.316 µM, first compound 0.00316 µM) 75.6% | viability, T/C (second compound 0.316 µM, first compound 0.01 µM) 72% | viability, T/C [17] 82.5% | viability, T/C [18] 74.7% | viability, T/C [19] 102% | viability, T/C [20] 111% | viability, T/C (second compound 1 µM, first compound 0.00316 µM) 79.8% | viability, T/C (second compound 1 µM, first compound 0.01 µM) 72.3% | viability, T/C [21] 88.1% | viability, T/C [22] 82.6% | viability, T/C [23] 91.8% | viability, T/C [24] 104%
> 1 µM: IC50 (second compound 0.00316 µM) | IC50 (second compound 0.01 µM) | IC50 (second compound 0.0316 µM) | IC50 (second compound 0.1 µM) | IC50 (second compound 0.316 µM) | IC50 (second compound 1 µM)

C#Cc1c(F)ccc2cc(O)cc(-c3ncc4c(N5CC6CCC(C5)N6)nc(OCC56CCCN5CC(F)C6)nc4c3F)c12 (stereo unspecified) + CNC(C)C(=O)NC1CN(S(=O)(=O)c2cccc(S(=O)(=O)N3CCC4CCC(C(=O)NC(c5ccccc5)c5ccccc5)N4C(=O)C(NC(=O)C(C)NC)C3)c2)CCC2CCC(C(=O)NC(c3ccccc3)c3ccccc3)N2C1=O
inactive: viability, T/C [1] 106% | viability, T/C [2] 93.7% | viability, T/C [3] 87.8% | viability, T/C [4] 90.2% | viability, T/C (second compound 0.00316 µM, first compound 3.16 µM) 101% | viability, T/C (second compound 0.00316 µM, first compound 10 µM) 135% | viability, T/C [5] 104% | viability, T/C [6] 89.9% | viability, T/C [7] 91% | viability, T/C [8] 103% | viability, T/C (second compound 0.01 µM, first compound 3.16 µM) 96.4% | viability, T/C (second compound 0.01 µM, first compound 10 µM) 112% | viability, T/C [9] 89% | viability, T/C [10] 83.2% | viability, T/C [11] 83% | viability, T/C [12] 88.2% | viability, T/C (second compound 0.0316 µM, first compound 3.16 µM) 96.4% | viability, T/C (second compound 0.0316 µM, first compound 10 µM) 136% | viability, T/C [13] 80.6% | viability, T/C [14] 95.4% | viability, T/C [15] 88.4% | viability, T/C [16] 82.7% | viability, T/C (second compound 0.1 µM, first compound 3.16 µM) 85.8% | viability, T/C (second compound 0.1 µM, first compound 10 µM) 98.2% | viability, T/C [17] 74% | viability, T/C [18] 87.6% | viability, T/C [19] 80.2% | viability, T/C [20] 89.9% | viability, T/C (second compound 0.316 µM, first compound 3.16 µM) 77.1% | viability, T/C (second compound 0.316 µM, first compound 10 µM) 119% | viability, T/C [21] 80.9% | viability, T/C [22] 86.1% | viability, T/C [23] 112% | viability, T/C [24] 91.6% | viability, T/C (second compound 1 µM, first compound 3.16 µM) 88.5% | viability, T/C (second compound 1 µM, first compound 10 µM) 109%
> 10 µM: IC50 (second compound 0.00316 µM) | IC50 (second compound 0.01 µM) | IC50 (second compound 0.0316 µM) | IC50 (second compound 0.1 µM) | IC50 (second compound 0.316 µM) | IC50 (second compound 1 µM)

Cc1nc(N2CCC3(CC2)COC(C)C3N)c(CO)nc1Sc1ccnc(N)c1Cl (stereo unspecified) + Cc1c(S(C)(=O)=O)c(-c2cc(F)cc(N3CCN(c4ccc(NS(=O)(=O)c5ccc(NC(CCN6CCC(C(=O)OCCCP(=O)(O)O)CC6)CSc6ccccc6)c(S(=O)(=O)C(F)(F)F)c5)cc4)CC3)c2)c(-c2ccc(Cl)cc2)n1C(C)C
inactive: viability, T/C (second compound 0.0316 µM, first compound 0.00949 µM) 97% | viability, T/C (second compound 0.0316 µM, first compound 0.03 µM) 96.6% | viability, T/C (second compound 0.0316 µM, first compound 0.0949 µM) 159% | viability, T/C (second compound 0.0316 µM, first compound 0.3 µM) 188% | viability, T/C (second compound 0.0316 µM, first compound 0.949 µM) 226% | viability, T/C (second compound 0.0316 µM, first compound 3 µM) 206% | viability, T/C (second compound 0.1 µM, first compound 0.00949 µM) 91.3% | viability, T/C (second compound 0.1 µM, first compound 0.03 µM) 148% | viability, T/C (second compound 0.1 µM, first compound 0.0949 µM) 152% | viability, T/C (second compound 0.1 µM, first compound 0.3 µM) 190% | viability, T/C (second compound 0.1 µM, first compound 0.949 µM) 212% | viability, T/C (second compound 0.1 µM, first compound 3 µM) 202% | viability, T/C (second compound 0.316 µM, first compound 0.00949 µM) 97.4% | viability, T/C (second compound 0.316 µM, first compound 0.03 µM) 132% | viability, T/C (second compound 0.316 µM, first compound 0.0949 µM) 176% | viability, T/C (second compound 0.316 µM, first compound 0.3 µM) 200% | viability, T/C (second compound 0.316 µM, first compound 0.949 µM) 231% | viability, T/C (second compound 0.316 µM, first compound 3 µM) 175% | viability, T/C (second compound 1 µM, first compound 0.00949 µM) 92.6% | viability, T/C (second compound 1 µM, first compound 0.03 µM) 139% | viability, T/C (second compound 1 µM, first compound 0.0949 µM) 176% | viability, T/C (second compound 1 µM, first compound 0.3 µM) 210% | viability, T/C (second compound 1 µM, first compound 0.949 µM) 205% | viability, T/C (second compound 1 µM, first compound 3 µM) 169% | viability, T/C (second compound 3.16 µM, first compound 0.00949 µM) 102% | viability, T/C (second compound 3.16 µM, first compound 0.03 µM) 139% | viability, T/C (second compound 3.16 µM, first compound 0.0949 µM) 182% | viability, T/C (second compound 3.16 µM, first compound 0.3 µM) 221% | viability, T/C (second compound 3.16 µM, first compound 0.949 µM) 167% | viability, T/C (second compound 3.16 µM, first compound 3 µM) 144% | viability, T/C (second compound 10 µM, first compound 0.00949 µM) 110% | viability, T/C (second compound 10 µM, first compound 0.03 µM) 152% | viability, T/C (second compound 10 µM, first compound 0.0949 µM) 177% | viability, T/C (second compound 10 µM, first compound 0.3 µM) 206% | viability, T/C (second compound 10 µM, first compound 0.949 µM) 174% | viability, T/C (second compound 10 µM, first compound 3 µM) 121%
> 3 µM: IC50 (second compound 0.0316 µM) | IC50 (second compound 0.1 µM) | IC50 (second compound 0.316 µM) | IC50 (second compound 1 µM) | IC50 (second compound 3.16 µM) | IC50 (second compound 10 µM)
